Test results published in ChEMBL document CHEMBL4152185, “Therapeutic potential of songorine, a diterpenoid alkaloid of the genus Aconitum” (Eur J Med Chem, 2018).

Key:
Rattus norvegicus = assay: Antiarrhythmic activity in iv dosed aconitine-induced rat arrhythmia model administered 3 to 5 mins prior to aconitine challenge by electrocardiographic method; format: functional
[1] = Acute toxicity in iv dosed rat; format: organism-based; details: in vivo
[2] = Antiarrhythmic index, ratio of LD50 for iv dosed rat to ED50 for antiarrhythmic activity in iv dosed aconitine-induced rat arrhythmia model; format: toxicity, organism-based; details: in vivo, read-out: Ratio LD50/ED50

Row | Structure (SMILES) | ED50 (Rattus norvegicus) | LD50 [1] | selectivity ratio [2]
1 | C=C1[C@H]2C[C@@]3([C@@H]1O)[C@@H](CC2=O)[C@@]12[C@@H](OC(=O)c4ccccc4)CC[C@@]4(C)CN(CC)[C@@H]1[C@@H]3C[C@H]42 | 0.38 mg/kg | 41 mg/kg | 108
2 | C=C1[C@H]2C[C@@]3([C@@H]1OC(C)=O)[C@@H](CC2=O)[C@@]12[C@@H](OC(C)=O)CC[C@@]4(C)CN(CC)[C@@H]1[C@@H]3C[C@H]42 | 18 mg/kg | 131 mg/kg | 7.3
3 | C=C1[C@H]2C[C@@]3([C@@H]1O)[C@@H](CC2=O)[C@@]12[C@@H](OC(C)=O)CC[C@@]4(C)CN(CC)[C@@H]1[C@@H]3C[C@H]42 | 15 mg/kg | 150 mg/kg | 10
4 | C=C1[C@H]2C[C@@]3([C@@H]1O)[C@@H](CC2=O)[C@]12[C@@H]4C[C@H]3[C@H]1N(CC)C[C@]4(C)CC[C@@H]2O [SONGORINE] | 7.3 mg/kg | 142 mg/kg | 19
